Test results from patent US10494332B2, “Protein tyrosine phosphatases or SHP2 inhibitors and uses thereof” (Indiana University Research and Technology Corporation, priority 2015, dated 2019).
Where “and” joins values, the source holds several entries; their conditions need not be identical. Equal entries are not always repeated.

Each compound was assayed against T1, LMWPTP (Homo sapiens, UniProt P24666) (assay: PTP inhibition assay (pNPP)). Details: pNPP at Km, pH 7.0, 25° C.
T1 sequence (P24666 1-158): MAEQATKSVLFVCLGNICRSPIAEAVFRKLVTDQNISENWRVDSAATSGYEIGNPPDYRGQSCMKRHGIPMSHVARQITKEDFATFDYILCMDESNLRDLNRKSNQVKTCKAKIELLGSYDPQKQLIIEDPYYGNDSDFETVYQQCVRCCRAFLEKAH
Format: biochemical

Point of comparison: O=C(Nc1ccc(-c2ccccc2)cc1)C(c1ccccc1)S(=O)(=O)O (stereo not drawn) [Compound L319N08], IC50 28.9 µM. Against it:
- O=C(NCc1ccc(NC(=O)C(c2ccccc2)S(=O)(=O)O)cc1)c1ccccc1-c1ccc(C(F)(F)F)cc1 (stereo not drawn) [Compound L319-05-A64] — within 1.5-fold, 29 µM
- CCCCc1ccc(NC(=O)C(=O)Nc2ccccc2NC(=O)C(c2ccccc2)S(=O)(=O)O)cc1 (stereo not drawn) [Compound L319-21-M06] — higher, > 50 µM
- O=C(Nc1cccc(OCc2ccccc2)c1)C(=O)Nc1ccccc1NC(=O)C(c1ccccc1)S(=O)(=O)O (stereo not drawn) [Compound L319-21-M52] — higher, > 50 µM

Compound O=C(Nc1cccc(OCc2ccccc2)c1)C(c1ccccc1)S(=O)(=O)O (stereo not drawn) [Compound L319M52] has an IC50 of 72.3 µM.

These compounds were tested against YopH (Yersinia enterocolitica, UniProt P15273) (assay: biochemical). Details: not given.
YopH, sequence (P15273 whole entry, looked up): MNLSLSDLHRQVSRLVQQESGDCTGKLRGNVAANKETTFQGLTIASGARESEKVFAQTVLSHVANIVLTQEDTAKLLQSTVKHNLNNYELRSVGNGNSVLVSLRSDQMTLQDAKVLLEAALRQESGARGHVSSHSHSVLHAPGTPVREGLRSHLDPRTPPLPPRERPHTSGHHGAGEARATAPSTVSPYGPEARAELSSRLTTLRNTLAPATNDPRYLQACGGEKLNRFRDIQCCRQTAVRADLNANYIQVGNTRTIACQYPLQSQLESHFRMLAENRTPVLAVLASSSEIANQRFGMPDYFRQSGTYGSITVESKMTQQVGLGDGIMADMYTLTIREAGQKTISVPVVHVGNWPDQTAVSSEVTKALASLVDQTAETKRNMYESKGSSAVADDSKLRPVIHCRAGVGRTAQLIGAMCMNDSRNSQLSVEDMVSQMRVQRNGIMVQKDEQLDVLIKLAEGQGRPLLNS

O=C(Nc1cccc(OCc2ccccc2)c1)C(c1ccccc1)S(=O)(=O)O (stereo not drawn) [Compound L319M52] was tested, and the IC50 was > 200 µM.

These compounds were tested against T2, LYP (Homo sapiens, UniProt Q9Y2R2) (assay: PTP inhibition assay (pNPP)). Details: pNPP at Km, pH 7.0, 25° C.
T2 sequence (Q9Y2R2 1-807): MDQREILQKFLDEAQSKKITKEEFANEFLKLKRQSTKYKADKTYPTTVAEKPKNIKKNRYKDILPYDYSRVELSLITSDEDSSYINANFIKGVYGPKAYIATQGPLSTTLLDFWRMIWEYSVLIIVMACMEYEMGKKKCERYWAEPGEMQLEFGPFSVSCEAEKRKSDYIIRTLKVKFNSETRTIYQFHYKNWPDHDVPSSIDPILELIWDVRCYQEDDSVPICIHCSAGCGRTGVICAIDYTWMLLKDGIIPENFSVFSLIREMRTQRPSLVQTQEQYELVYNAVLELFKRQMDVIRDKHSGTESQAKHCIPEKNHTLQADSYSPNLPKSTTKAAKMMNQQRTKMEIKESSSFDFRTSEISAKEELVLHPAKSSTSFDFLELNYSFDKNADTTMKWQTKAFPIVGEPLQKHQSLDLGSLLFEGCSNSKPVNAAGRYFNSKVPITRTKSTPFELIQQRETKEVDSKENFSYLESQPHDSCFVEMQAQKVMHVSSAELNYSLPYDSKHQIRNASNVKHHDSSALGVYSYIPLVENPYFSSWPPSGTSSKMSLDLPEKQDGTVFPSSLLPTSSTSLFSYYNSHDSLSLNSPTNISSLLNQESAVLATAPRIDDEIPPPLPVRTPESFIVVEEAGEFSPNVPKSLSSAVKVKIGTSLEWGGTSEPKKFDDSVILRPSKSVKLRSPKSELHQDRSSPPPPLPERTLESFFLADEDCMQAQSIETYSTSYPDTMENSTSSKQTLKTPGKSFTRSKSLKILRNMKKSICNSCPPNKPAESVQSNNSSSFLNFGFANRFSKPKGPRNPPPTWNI
Format: biochemical

Point of comparison: O=C(NCc1ccc(NC(=O)C(c2ccccc2)S(=O)(=O)O)cc1)c1ccccc1-c1ccc(C(F)(F)F)cc1 (stereo not drawn) [Compound L319-05-A64], IC50 62 µM. Against it:
- CCCCc1ccc(NC(=O)C(=O)Nc2ccccc2NC(=O)C(c2ccccc2)S(=O)(=O)O)cc1 (stereo not drawn) [Compound L319-21-M06] — not separable, > 50 µM
- O=C(Nc1cccc(OCc2ccccc2)c1)C(=O)Nc1ccccc1NC(=O)C(c1ccccc1)S(=O)(=O)O (stereo not drawn) [Compound L319-21-M52] — not separable, > 50 µM
- O=C(Nc1cccc(OCc2ccccc2)c1)C(c1ccccc1)S(=O)(=O)O (stereo not drawn) [Compound L319M52] — higher, > 200 µM
- O=C(Nc1ccc(-c2ccccc2)cc1)C(c1ccccc1)S(=O)(=O)O (stereo not drawn) [Compound L319N08] — higher, > 200 µM

These compounds were tested against SHP1 (Homo sapiens, UniProt P29350) (assay: PTP inhibition assay (pNPP)). Details: pNPP at Km, pH 7.0, 25° C.
Format: biochemical

SHP1, sequence (P29350 whole entry): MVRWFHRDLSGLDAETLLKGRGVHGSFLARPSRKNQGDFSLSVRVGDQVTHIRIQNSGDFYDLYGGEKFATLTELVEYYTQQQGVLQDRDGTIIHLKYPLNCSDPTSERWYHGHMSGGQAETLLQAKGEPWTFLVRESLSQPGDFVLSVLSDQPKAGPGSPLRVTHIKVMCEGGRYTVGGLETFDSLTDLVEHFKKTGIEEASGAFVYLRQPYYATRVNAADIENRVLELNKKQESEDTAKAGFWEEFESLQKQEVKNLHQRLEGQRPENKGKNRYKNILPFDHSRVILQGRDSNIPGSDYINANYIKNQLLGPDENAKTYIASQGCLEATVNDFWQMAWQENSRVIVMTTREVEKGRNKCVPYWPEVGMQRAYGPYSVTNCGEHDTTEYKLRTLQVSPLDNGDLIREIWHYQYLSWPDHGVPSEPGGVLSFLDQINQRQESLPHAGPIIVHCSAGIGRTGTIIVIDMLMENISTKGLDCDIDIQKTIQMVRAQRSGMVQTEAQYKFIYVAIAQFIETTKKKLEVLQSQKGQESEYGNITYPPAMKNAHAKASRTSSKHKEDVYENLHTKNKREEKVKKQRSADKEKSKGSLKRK

Point of comparison: O=C(Nc1ccc(-c2ccccc2)cc1)C(c1ccccc1)S(=O)(=O)O (stereo not drawn) [Compound L319N08], IC50 64.6 µM. Against it:
- CCCCc1ccc(NC(=O)C(=O)Nc2ccccc2NC(=O)C(c2ccccc2)S(=O)(=O)O)cc1 (stereo not drawn) [Compound L319-21-M06] — not separable, > 50 µM
- O=C(Nc1cccc(OCc2ccccc2)c1)C(=O)Nc1ccccc1NC(=O)C(c1ccccc1)S(=O)(=O)O (stereo not drawn) [Compound L319-21-M52] — not separable, > 50 µM

O=C(Nc1cccc(OCc2ccccc2)c1)C(c1ccccc1)S(=O)(=O)O (stereo not drawn) [Compound L319M52] was tested, and the IC50 was > 200 µM and 62.3 µM.

The compounds below were run against T3, SHP2 (Homo sapiens, UniProt Q06124) (assay: SHP2 phosphatase inhibition assay (pNPP)). Details: pNPP at Km, pH 7.0, 25° C.; read-out: IC50 SHP2.
T3 sequence (Q06124 224-528): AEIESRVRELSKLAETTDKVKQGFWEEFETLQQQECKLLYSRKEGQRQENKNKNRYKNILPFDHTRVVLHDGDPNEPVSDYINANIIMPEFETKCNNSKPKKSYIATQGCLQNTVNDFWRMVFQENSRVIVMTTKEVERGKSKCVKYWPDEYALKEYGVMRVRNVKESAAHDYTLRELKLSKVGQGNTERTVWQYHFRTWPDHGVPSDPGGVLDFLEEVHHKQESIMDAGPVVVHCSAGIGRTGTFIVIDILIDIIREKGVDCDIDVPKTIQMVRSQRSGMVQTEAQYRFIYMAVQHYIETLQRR
Format: biochemical

Point of comparison: O=C(NCc1ccc(NC(=O)C(c2ccccc2)S(=O)(=O)O)cc1)c1ccccc1-c1ccc(C(F)(F)F)cc1 (stereo not drawn) [Compound L319-05-A64], IC50 69 µM. Against it:
- CCCCc1ccc(NC(=O)C(=O)Nc2ccccc2NC(=O)C(c2ccccc2)S(=O)(=O)O)cc1 (stereo not drawn) [Compound L319-21-M06] — not separable, > 50 µM
- O=C(Nc1cccc(OCc2ccccc2)c1)C(=O)Nc1ccccc1NC(=O)C(c1ccccc1)S(=O)(=O)O (stereo not drawn) [Compound L319-21-M52] — not separable, > 50 µM
- O=C(Nc1cccc(OCc2ccccc2)c1)C(c1ccccc1)S(=O)(=O)O (stereo not drawn) [Compound L319M52] — higher, > 200 µM
- O=C(Nc1ccc(-c2ccccc2)cc1)C(c1ccccc1)S(=O)(=O)O (stereo not drawn) [Compound L319N08] — higher, > 100 µM

The compounds below were run against T4, Meg2 (Homo sapiens, UniProt P43378) (assay: PTP inhibition assay (pNPP)). Details: not given.
T4 sequence (P43378 1-593): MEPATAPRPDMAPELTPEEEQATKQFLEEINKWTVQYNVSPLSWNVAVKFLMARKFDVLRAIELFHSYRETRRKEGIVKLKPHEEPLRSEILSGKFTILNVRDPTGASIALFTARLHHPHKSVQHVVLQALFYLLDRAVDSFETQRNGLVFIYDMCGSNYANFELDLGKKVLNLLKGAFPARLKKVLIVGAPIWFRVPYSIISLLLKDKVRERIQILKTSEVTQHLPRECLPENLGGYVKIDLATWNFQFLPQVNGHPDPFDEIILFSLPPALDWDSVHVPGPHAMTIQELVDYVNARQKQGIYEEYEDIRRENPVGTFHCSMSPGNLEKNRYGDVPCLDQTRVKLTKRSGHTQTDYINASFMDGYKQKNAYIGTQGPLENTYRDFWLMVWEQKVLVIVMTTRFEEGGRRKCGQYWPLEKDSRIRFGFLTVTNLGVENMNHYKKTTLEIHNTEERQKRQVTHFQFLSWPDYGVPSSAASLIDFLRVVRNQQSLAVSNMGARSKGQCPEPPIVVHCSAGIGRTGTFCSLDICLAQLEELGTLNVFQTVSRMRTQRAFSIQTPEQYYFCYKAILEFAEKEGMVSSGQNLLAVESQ
Format: biochemical

In the case of O=C(Nc1cccc(OCc2ccccc2)c1)C(c1ccccc1)S(=O)(=O)O (stereo not drawn) [Compound L319M52], the IC50 is reported as > 200 µM.

What follows are compounds tested against PTPα (Homo sapiens, UniProt P18433) (assay: PTP inhibition assay (pNPP)). Details: not given.
Format: biochemical

PTPα, sequence (P18433 20-802): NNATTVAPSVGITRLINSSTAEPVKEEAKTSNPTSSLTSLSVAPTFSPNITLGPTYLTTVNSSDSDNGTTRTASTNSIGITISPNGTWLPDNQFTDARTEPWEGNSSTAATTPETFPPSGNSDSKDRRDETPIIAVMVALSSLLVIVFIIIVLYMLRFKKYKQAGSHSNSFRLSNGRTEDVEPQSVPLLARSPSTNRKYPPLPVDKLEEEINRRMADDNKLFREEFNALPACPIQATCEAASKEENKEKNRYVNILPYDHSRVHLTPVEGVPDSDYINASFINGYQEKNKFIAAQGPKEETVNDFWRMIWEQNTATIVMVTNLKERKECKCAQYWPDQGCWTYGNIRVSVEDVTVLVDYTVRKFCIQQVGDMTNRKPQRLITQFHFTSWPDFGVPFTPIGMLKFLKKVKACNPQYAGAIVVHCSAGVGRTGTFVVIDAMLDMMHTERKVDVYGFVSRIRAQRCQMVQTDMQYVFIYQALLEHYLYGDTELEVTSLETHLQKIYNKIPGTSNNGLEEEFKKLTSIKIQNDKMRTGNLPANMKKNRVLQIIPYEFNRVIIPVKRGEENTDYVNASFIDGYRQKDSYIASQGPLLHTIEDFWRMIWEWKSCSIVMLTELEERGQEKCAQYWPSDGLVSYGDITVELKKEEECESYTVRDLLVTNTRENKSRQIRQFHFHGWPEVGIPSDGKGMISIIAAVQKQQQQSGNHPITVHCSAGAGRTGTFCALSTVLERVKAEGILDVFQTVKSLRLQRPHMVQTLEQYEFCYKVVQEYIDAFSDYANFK

With O=C(Nc1cccc(OCc2ccccc2)c1)C(c1ccccc1)S(=O)(=O)O (stereo not drawn) [Compound L319M52] the IC50 was > 200 µM.

Each compound was assayed against T5, STEP (Homo sapiens, UniProt P54829) (assay: PTP inhibition assay (pNPP)). Details: IC50 STEP, pNPP at Km, pH 7.0, 25° C.
T5 sequence (P54829 1-565): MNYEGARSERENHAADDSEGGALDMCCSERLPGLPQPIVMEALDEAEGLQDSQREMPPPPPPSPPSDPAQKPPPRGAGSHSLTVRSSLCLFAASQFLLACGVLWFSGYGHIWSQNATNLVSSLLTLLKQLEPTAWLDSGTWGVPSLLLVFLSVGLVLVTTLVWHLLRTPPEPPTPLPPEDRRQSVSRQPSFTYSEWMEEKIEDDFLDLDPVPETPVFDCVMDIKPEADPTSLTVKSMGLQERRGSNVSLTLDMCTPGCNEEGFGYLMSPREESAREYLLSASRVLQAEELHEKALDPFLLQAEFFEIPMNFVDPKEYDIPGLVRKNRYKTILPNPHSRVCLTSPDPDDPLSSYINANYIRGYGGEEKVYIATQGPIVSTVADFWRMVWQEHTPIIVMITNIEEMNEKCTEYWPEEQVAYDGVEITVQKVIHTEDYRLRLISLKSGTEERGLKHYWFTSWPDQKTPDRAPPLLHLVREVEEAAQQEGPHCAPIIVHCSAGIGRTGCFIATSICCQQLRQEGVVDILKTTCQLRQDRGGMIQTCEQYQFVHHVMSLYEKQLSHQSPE
Format: biochemical

With O=C(Nc1ccc(-c2ccccc2)cc1)C(c1ccccc1)S(=O)(=O)O (stereo not drawn) [Compound L319N08] the IC50 was > 100 µM.

Same assay, conditions: pNPP at Km, pH 7.0, 25° C.; read-out: IC50 STEP

O=C(NCc1ccc(NC(=O)C(c2ccccc2)S(=O)(=O)O)cc1)c1ccccc1-c1ccc(C(F)(F)F)cc1 (stereo not drawn) [Compound L319-05-A64] and CCCCc1ccc(NC(=O)C(=O)Nc2ccccc2NC(=O)C(c2ccccc2)S(=O)(=O)O)cc1 (stereo not drawn) [Compound L319-21-M06] cannot be ordered by IC50: > 100 µM for the first, > 50 µM for the second.

O=C(Nc1cccc(OCc2ccccc2)c1)C(=O)Nc1ccccc1NC(=O)C(c1ccccc1)S(=O)(=O)O (stereo not drawn) [Compound L319-21-M52] and O=C(Nc1cccc(OCc2ccccc2)c1)C(c1ccccc1)S(=O)(=O)O (stereo not drawn) [Compound L319M52] cannot be ordered by IC50: > 50 µM for the first, > 200 µM for the second.
